Reference: patent US10561658B2, “Thieno- and pyrrolopyrimidine analogues as anticancer agents and methods of use thereof” (UNIVERSITY OF MARYLAND, BALTIMORE COUNTY, priority 2015, dated 2020)

Key:
[1] = tested on: human lymphocytic CEM cells; assay: Cell proliferation assay, CEM; type: cell-based; conditions: CCRF-CEM, 72 h proliferation, Coulter counter
Description: Cell proliferation assays for several of the compounds were performed on L1210, a mouse lymphocytic leukemia cell line; CCRF-CEM [39] an acute lymphoblastic leukemia cell line; and HeLa, a human cancer cell line derived from a human cervical adenocarcinoma. Murine Leukemia L1210, human lymphocytic CEM and human cervix carcinoma HeLa cells were obtained from the American Type Culture Collection (ATCC) (Rockville, Md.). All assays were performed in 96-well microtiter plates. To each well were added (5-7.5)×10^4 tumor cells and a given amount of the test compound. The cells were allowed to proliferate for 48 h (murine leukemia L1210 cells) or 72 h (human lymphocytic CEM and human cervix carcinoma HeLa cells) at 37° C. in a humidified CO2-controlled atmosphere. At the end of the incubation period, the cells were counted in a Coulter counter. The IC50 (50% inhibitory concentration) was defined as the concentration of the compound that inhibited cell proliferation by 50%. […] Presence of C7 iodine on the 2,4-dichloro pyrrolo[3,2-d] (compound 20) increases the anticancer activity by a factor of 5 when compared to compound 19. […] This alludes to a) importance of C7-I towards activity against cancer cell lines for the 2,4-O-benzylated analogues (15 and 16).

[2] = tested on: Enterococcus faecalis (FRE) ATCC 51299; assay: Antimicrobial growth inhibition, E. faecalis; type: cell-based; conditions: ATCC51299; Enterococcus faecalis ATCC 51299, 100 μM
Description: (§1) Evaluation of antimicrobial activity in vitro. Compounds were tested against the following panel of bacteria and fungi purchased from the American Type Culture Collection (ATCC). Briefly, bacteria were grown to mid-log phase, diluted with fresh medium to an optical density at 600 nm (OD600) of 0.030-0.060 and then diluted again 1:10. This suspension (195 μL) was added to wells in a 96 well microtiter plate (Sarstedt) and 5 μL of compound dissolved in DMSO was added to give a final concentration of 100-0.1 μM at 2.5% DMSO by volume. A DMSO negative control and standard antibiotic positive controls were included in each plate. All compounds were tested in triplicate for each concentration. Plates were sealed with parafilm, placed in a Ziploc bag to prevent evaporation, and incubated at 30° C. (fungi) or 37° C. (bacteria) for 16-20 hours (48 hours for C. neoformans). The OD600 values for each well were determined with a plate reader (Biotek, EL800) and the data were standardized to the DMSO control wells after subtracting the background from blank medium. Initial single concentrations were tested at 100 μM and active compounds were further tested with at least nine concentrations for a full dose response. Dose response curves were generated using GraphPad Prism 5 software and used to determine the MIC95 concentrations (minimal concentration that inhibits 95% of growth). […]

[3] = tested on: Pseudomonas aeruginosa ATCC 27853; assay: Antimicrobial growth inhibition, P. aeruginosa; type: cell-based; conditions: ATCC27853; Pseudomonas aeruginosa ATCC 27853, 100 μM
Description: as §1

L1210 cells = assay: Cell cycle distribution (propidium iodide, flow cytometry), L1210; type: cell-based, mouse; conditions: IC50 concentrations, 24 h or 48 h
Description: 0.32 μM compound 1, b. 5.4 μM compound 2, and analyzed by flow cytometry of fixed, propidium iodide-stained cells. A minimum of 3000 cells were analyzed per cell population. Each bar represents the mean±SD across 4 independent cell samples.
Many antineoplastic compounds arrest cell proliferation by activating specific checkpoints that block progression through the cell cycle. To test whether compounds 1 or 2 inhibited cell proliferation by this mechanism, their effects on L1210 cell cycle distributions were monitored using propidium iodide staining and flow cytometry (FIG. 7). Cell cycle and apoptosis studies were conducted on L1210, a mouse lymphocytic leukemia cell line obtained from the American Type Culture Collection and grown in Dulbecco's Modified Eagle's Medium (DMEM) plus 10% fetal bovine serum (FBS). 2×10^6 cells were seeded in 100 mm dishes and treated with vehicle alone or compounds 1 or 2 at the IC50 values determined by cell viability assays or an equivalent volume of DMSO. At 24 and 48 h following treatment the cells were collected, fixed, and stained with propidium iodide (Sigma Aldrich) immediately before analysis by flow cytometry. Vehicle-treated cells were largely confined to G1 and S phases, with very small (<5%) subpopulations in the G2/M phase or showing sub-(<G1) or super-genomic (>G2) DNA content.

MDA-MB-231 cells = assay: MTT cytotoxicity, MDA-MB-231; type: cell-based; conditions: Homo sapiens; MDA-MB-231, cell viability (MTT), 48 h; read-out: IC80 (equitoxic dose)
Description: Human metastatic breast cancer MDA-MB-231 cells were obtained from the American Type Culture Collection (ATCC) (Rockville, Md.) and maintained in Dulbecco's Modified Eagle's Medium (DMEM) containing 10% fetal bovine serum (FBS) without antibiotics at 37° C. in a humidified, CO2-controlled incubator. The cytotoxicity of compounds 1 and 2 was assessed by reduction of 3-(4, 5-dimethylthiazol-2-yl)-2,5-diphenyltetrazolium bromide (MTT). MDA-MB-231 cells were seeded in 96-well plates at 5×10^3 cells per well and treated with a range of drug concentrations. After 48 hours, cell viability was measured using the MTT Cell Proliferation Assay kit (ATCC) according to the manufacturer's instructions. Percent cell viability was plotted as a function of drug concentrations and analyzed using a sigmoidal dose response function with PRISM v3.03 software (GraphPad) to resolve drug concentrations yielding 50% cell death (IC50). The cell cycle distributions of MDA-MB-231 cells treated with compounds 1 or 2 were analyzed using propidium iodide staining and flow cytometry. 2×10^6 cells were seeded in 100 mm dishes and treated with compounds 1 or 2 at the IC80 values determined by cell viability assays or an equivalent volume of DMSO. 48 h following treatment the cells were collected, fixed, and stained with propidium iodide (Sigma Aldrich) immediately before analysis by flow cytometry.

melanoma tumor = assay: In vivo activity screen, intra-tumor injection; parameters: species or system mice; conditions: intra-tumor injection 0.01 mg/100 mm^3 tumor, 5 days on/2 days off, 21 days
Source text: The asterisk denotes […] when compared to the vehicle only (n=6-10 mice). Melanoma is viewed as resistant to nucleoside analogues, since traditional FDA-approved nucleosides have minimal effects on growth inhibition (100-90% growth percent) and apoptosis (5-10% cell death).

[4] = In vivo systemic (IP) toxicity, body weight
Source text: When dosing was completed, the mice were monitored for 14 days to determine any toxicity. In mice the best indicator of toxicity is weight loss.

PIK3C2A = PIK3C2A (Homo sapiens, UniProt O00443); assay: Select Screen kinase profiling; type: biochemical
Chain of PIK3C2A (O00443 whole entry): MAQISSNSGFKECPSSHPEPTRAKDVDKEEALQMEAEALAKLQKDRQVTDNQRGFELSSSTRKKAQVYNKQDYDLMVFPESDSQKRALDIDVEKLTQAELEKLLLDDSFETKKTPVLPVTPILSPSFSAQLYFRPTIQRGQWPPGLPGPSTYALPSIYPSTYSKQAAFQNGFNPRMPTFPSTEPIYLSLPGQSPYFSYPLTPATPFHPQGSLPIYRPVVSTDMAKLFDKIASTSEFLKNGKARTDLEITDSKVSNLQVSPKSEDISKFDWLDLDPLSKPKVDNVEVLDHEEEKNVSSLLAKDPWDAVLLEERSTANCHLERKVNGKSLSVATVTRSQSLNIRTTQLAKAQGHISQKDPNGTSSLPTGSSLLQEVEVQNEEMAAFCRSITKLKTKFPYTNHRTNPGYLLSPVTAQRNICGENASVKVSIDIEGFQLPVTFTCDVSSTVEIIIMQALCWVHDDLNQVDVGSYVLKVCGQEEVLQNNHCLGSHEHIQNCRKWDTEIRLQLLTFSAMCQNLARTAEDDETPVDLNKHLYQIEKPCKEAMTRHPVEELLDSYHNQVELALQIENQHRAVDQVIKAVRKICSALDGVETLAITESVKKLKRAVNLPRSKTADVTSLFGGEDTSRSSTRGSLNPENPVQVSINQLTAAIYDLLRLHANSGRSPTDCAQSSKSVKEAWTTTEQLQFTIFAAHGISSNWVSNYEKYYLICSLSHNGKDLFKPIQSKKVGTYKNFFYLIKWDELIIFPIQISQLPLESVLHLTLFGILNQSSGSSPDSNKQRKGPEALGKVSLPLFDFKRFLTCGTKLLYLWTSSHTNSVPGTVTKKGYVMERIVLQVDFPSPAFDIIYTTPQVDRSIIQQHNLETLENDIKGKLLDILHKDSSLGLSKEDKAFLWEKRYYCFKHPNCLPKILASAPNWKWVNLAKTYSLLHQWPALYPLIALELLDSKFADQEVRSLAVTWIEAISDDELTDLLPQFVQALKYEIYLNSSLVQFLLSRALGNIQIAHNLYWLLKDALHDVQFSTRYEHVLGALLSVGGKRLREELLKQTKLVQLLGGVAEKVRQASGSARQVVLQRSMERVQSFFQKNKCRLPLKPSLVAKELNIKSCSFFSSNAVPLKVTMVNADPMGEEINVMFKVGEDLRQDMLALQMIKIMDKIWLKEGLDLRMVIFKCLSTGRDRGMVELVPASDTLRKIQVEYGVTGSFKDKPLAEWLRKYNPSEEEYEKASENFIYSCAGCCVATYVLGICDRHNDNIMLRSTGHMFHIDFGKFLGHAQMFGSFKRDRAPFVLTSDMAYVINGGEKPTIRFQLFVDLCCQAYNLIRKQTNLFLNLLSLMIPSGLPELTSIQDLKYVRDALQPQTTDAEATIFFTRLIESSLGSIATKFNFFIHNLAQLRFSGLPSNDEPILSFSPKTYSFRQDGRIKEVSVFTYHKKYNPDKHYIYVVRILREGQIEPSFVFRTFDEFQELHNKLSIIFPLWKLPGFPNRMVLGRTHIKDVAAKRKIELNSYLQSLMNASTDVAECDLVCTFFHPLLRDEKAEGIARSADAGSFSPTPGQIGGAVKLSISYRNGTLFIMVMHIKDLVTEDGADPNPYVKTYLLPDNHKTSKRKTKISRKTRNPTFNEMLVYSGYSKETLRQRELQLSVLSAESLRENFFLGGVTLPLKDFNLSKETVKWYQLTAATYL
Source text: (§2) The thieno[3,2-d]pyrimidine scaffold has been used extensively in the design of kinase inhibitors.

PIK3CG = PIK3CG (Homo sapiens, UniProt P48736); assay: Select Screen kinase profiling; type: biochemical
Chain of PIK3CG (P48736 whole entry): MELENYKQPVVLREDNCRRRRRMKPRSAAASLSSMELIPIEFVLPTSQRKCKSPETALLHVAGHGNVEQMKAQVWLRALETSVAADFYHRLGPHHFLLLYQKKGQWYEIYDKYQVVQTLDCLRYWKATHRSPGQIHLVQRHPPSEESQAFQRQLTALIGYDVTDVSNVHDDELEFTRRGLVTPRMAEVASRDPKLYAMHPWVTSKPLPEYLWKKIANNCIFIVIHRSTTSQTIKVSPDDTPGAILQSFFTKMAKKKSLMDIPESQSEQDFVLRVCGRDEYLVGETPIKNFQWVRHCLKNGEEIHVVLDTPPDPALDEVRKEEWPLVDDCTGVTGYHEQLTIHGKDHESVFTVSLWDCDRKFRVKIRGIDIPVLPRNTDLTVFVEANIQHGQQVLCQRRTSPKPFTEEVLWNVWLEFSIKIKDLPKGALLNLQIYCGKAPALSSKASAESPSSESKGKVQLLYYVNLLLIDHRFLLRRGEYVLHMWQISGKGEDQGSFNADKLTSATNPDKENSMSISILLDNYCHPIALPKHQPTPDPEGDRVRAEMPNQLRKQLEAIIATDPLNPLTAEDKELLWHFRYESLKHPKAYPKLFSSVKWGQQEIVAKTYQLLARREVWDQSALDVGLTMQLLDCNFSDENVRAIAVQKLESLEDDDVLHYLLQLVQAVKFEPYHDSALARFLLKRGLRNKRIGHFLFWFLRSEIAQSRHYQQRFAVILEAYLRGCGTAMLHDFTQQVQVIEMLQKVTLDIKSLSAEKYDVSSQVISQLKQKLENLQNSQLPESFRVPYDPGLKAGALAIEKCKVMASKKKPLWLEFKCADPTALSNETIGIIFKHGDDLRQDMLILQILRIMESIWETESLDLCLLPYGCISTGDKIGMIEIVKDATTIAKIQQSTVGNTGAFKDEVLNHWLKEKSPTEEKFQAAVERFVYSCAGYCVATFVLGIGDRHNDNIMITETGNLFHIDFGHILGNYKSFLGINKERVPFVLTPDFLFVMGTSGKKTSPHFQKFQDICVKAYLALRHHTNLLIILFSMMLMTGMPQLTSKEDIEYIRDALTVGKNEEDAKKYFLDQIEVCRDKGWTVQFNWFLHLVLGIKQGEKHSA
Source text: as §2

SMILES | IC50 [1] [µM] | inhibition at 100 µM [2] [%] | inhibition at 100 µM [3] [%] | changes in L1210 cell cycle distribution (L1210 cells) | IC80 (MDA-MB-231 cells) [µM] | anti-cancer activity (tumor responsiveness) in vivo (melanoma tumor) | body weight ([4]; 20 mg/kg IP, 5 days) | toxicity when administered systemically ([4]; daily IP doses 5 consecutive days, monitored 14 days) | inhibition at 5 µM (PIK3C2A) [%] | inhibition at 5 µM (PIK3CG) [%]
Clc1nc(Cl)c2[nH]ccc2n1 [Compound 19, 2,4-Dichloropyrrolo[3,2-d]pyrimidine] | 25 |  |  |  |  |  |  |  |  | 
Clc1nc(Cl)c2sccc2n1 [Compound 1, 2,4-Dichlorothieno[3,2-d]pyrimidine] |  | < 43 | < 43 | no substantial changes | 15 | comparable to the current standard of care, temozolomide | maintaining their weight | non-toxic | < 40 | < 40
Clc1nc(Cl)c2scc(Br)c2n1 [Compound 2, 7-Bromo-2,4-dichlorothieno[3,2-d]pyrimidine] |  | < 43 | < 43 | no substantial changes | 8 |  |  |  |  | 
